Measurements as given in article PMC12648656, “Palladium(II) Complexes with Noncovalent Interactions with DNA: Solution Speciation Controlled by Solvent Identity, pH, and Concentration” (Inorganic Chemistry, 2025).
≈ marks a conversion by molar mass, not a printed value.

Assays:
[1] = test system: Colo 205 human colon cancer cell line; assay: In vitro cytotoxicity, MTT; assay type: cell-based; conditions: Homo sapiens; Colo 205, 72 h exposure
Experimental: (§1) Cell culture reagents were obtained from Merck, and plasticware was obtained from Sarstedt. Human colon adenocarcinoma cell line Colo 205 (ATCC CCL-222) and MCF7 (ATCC HTB-22) breast cancer cells were purchased from LGC Promochem. Cancer cells were cultured in RPMI 1640 medium supplemented with 10% heat-inactivated fetal bovine serum, 2 mM L-glutamine, and 1 mM sodium pyruvate and buffered with 100 mM HEPES. The cells were incubated at 37 °C in a 5% CO2, 95% air atmosphere and were detached with Trypsin-Versene (EDTA) solution for 5 min at 37 °C.
(§2) The tested ligands were dissolved in DMSO, and the stock solutions (5 mM) were diluted in complete culture medium. Two-fold serial dilutions of compounds were made in 100 μL of the medium, horizontally. The semiadherent colon adenocarcinoma cells were treated with Trypsin-Versene (EDTA) solution. They were adjusted to a density of 1 × 10^4 cells in 100 μL of RPMI 1640 medium and were added to each well, with the exception of the medium control wells. The final volume of the wells containing compounds and cells was 200 μL. The plates containing the cells were incubated at 37 °C for 72 h; at the end of the incubation period, 20 μL of MTT solution (5 mg/mL) was added to each well. After incubation at 37 °C for 4 h, 100 μL of sodium dodecyl sulfate solution (10% in 0.01 M HCl) was added to each well, and the plates were further incubated at 37 °C overnight. Cell growth was determined by measuring the optical density (OD) at 540 and 630 nm with a Multiskan EX plate reader (Thermo Labsystems).
(§3) Curves for the data obtained on cancer cells were fitted by GraphPad Prism software using the sigmoidal dose–response model (comparing variable and fixed slopes). The IC50 values were always obtained from at least three independent experiments.

[2] = test system: MCF7 human breast cancer cell line; assay: In vitro cytotoxicity, MTT; assay type: cell-based; conditions: Homo sapiens; MCF7, 72 h exposure
Experimental: as §1, §2, §3

Klebsiella pneumoniae = assay: Antibacterial MIC, broth dilution; assay type: cell-based; conditions: Klebsiella pneumoniae, 18 h
Experimental: (§4) Antibacterial activity was determined for the title compounds in various Gram-negative and Gram-positive bacterial strains, namely Klebsiella pneumoniae, Escherichia coli (ATCC 25922), Staphylococcus aureus (272123), methicillin-resistant Staphylococcus aureus (ATCC 43300), and Enterococcus faecalis (ATCC 29212). The stock solutions of the tested compounds were prepared in DMSO at a 5 mM concentration. […] All stock solutions were diluted in 100 μL of Mueller Hinton Broth, and then two-fold serial dilutions were performed. Then, a 10^–4 dilution of an overnight bacterial culture in 100 μL of medium was added to each well, except for the medium control wells. The highest concentration of the compounds in the tested samples was 100 μM. The plates were incubated at 37 °C for 18 h. After that, the MIC values were determined by visual inspection.

[3] = test system: Enterococcus faecalis (ATCC 29212); assay: Antibacterial MIC, broth dilution; assay type: cell-based; conditions: Enterococcus faecalis, ATCC29212, 18 h
Experimental: as §4

[4] = test system: Escherichia coli (ATCC 25922); assay: Antibacterial MIC, broth dilution; assay type: cell-based; conditions: Escherichia coli, ATCC25922, 18 h
Experimental: as §4

[5] = test system: Staphylococcus aureus (272123); assay: Antibacterial MIC, broth dilution; assay type: cell-based; conditions: Staphylococcus aureus, 18 h
Experimental: as §4

[6] = test system: methicillin-resistant Staphylococcus aureus (ATCC 43300); assay: microbe, parasite or virus in culture; assay type: cell-based; conditions: Staphylococcus aureus, ATCC 43300 / MRSA, 18 h
Experimental: as §4

calf thymus-DNA (CT-DNA) = assay: Viscometry with CT-DNA; assay type: binding; conditions: compound/DNA ratios 0.0 to 1.0; 5 mM Tris, 100 mM NaCl, pH 7.40, 25.0 °C
Experimental: […] Then, the samples were incubated at 37 °C and with constant shaking at 300 rpm for 10 min and 1 h. After each incubation, the viscosity was measured at a constant temperature of 25.0 ± 0.2 °C in a vibrational viscometer. The relative viscosity was calculated by taking the mean values of three replicate measurements, and the values were represented by plotting the values of relative viscosity of CT-DNA (η/η0)^1/3 against 1/R.

With `COc1cccc2c1C(=O)c1c(O)c3c(c(O)c1C2=O)C[C@@](O)(C(=O)CO)C[C@@H]3O[C@H]1C[C@H](N)[C@H](O)[C@H](C)O1` [Doxorubicin, reference compound] the IC50 [1] was 158 ± 4 nM and the IC50 [2] was 128 ± 0.9 nM.
Work on `O=C(O)c1cn(C2CC2)c2cc(N3CCNCC3)c(F)cc2c1=O` [ciprofloxacin, reference compound] yielded an MIC (Klebsiella pneumoniae) of 0.235 µM (≈ 0.078 µg/mL), an MIC [3] of 1.89 µM (≈ 0.625 µg/mL) and an MIC [4] of 0.235 µM (≈ 0.078 µg/mL). For the same compound, the MIC [5] was 1.89 µM (≈ 0.625 µg/mL) and the MIC [6] was > 15.1 µM.
For `CC[n+]1c(-c2ccccc2)c2cc(N)ccc2c2ccc(N)cc21` [ethidium bromide], the “effect on relative viscosity of CT-DNA” value (calf thymus-DNA (CT-DNA)) was “increases the dynamic viscosity”.
For `CNC(C)C1CCC(N)C(OC2C(N)CC(N)C(OC3OCC(C)(O)C(NC)C3O)C2O)O1` (stereo not shown) [gentamicin, reference compound], the MIC (Klebsiella pneumoniae) was 2.62 µM (≈ 1.25 µg/mL), the MIC [3] was 10.5 µM (≈ 5 µg/mL) and the MIC [4] was 5.24 µM (≈ 2.5 µg/mL). For the same compound, the MIC [5] was 10.5 µM (≈ 5 µg/mL) and the MIC [6] was > 10.5 µM.
